In patent EP4763840A1, “NOVEL QUINAZOLINE-BENZIMIDAZOLE DERIVATIVE OR PHARMACEUTICALLY ACCEPTABLE SALT THEREOF AND USE THEREOF” (Korea University Research and Business Foundation, priority 2023, dated 2025):

Key:
SKBR3 [1] = test: Cell morphology by optical microscope in SKBR3; type: cell-based; conditions: 5 µM, 48 hours
Description: (§1) In addition, after treatment with compounds 1-15, 1-16, 1-19, and 1-22 at a concentration of 5 µM for 48 hours in SKBR3 and JIMT-1 cell lines, morphological changes of the cells were observed using an optical microscope, and the results are shown in B of FIG. 4.

MDA-MB-231 = test: MTS assay cell viability screening in MDA-MB-231; type: cell-based, human; conditions: 0, 1, and 5 µM, 72 hours
Description: (§2) MDA-MB-231 (Cell seeding numbers: 0.8(M231) x 10^4 cells/wells (confluency ≧ 25%), which is a human triple-negative breast cancer (TNBC) cell line, and JIMT-1 (Cell seeding numbers: 0.8(JIMT) x 10^4 cells/wells (confluency ≧ 25%)), which is a HER2 positive breast cancer (HER2+ BC) cell line, were used in the experiment.
(§3) The above cell lines were cultured in Dulbecco's modified Eagle's medium (DMEM) containing 10% fetal bovine serum (FBS), streptomycin-penicillin (100 U/mL), and Fungizone (0.625 µg/mL) at 5% CO2 and 37°C.
(§4) The human breast cancer cell lines MDA-MB-231 and JIMT-1 were treated with quinazoline-benzimidazole derivatives of Formulas 1-1 to 1-31 at various concentrations of 0, 1, and 5 µM, respectively, for 72 hours, and then cell viability was measured using the MTS assay technique. In the MTS assay, cells were attached to a 96-well plate for 24 hours, treated with the quinazoline-benzimidazole derivative for 72 hours, developed with MTS (3-(4,5-dimethylthiazol-2-yl)-5-(3-carboxymethoxyphenyl)-2-(4-sulfophenyl)-2H-tetrazolium) for 4 hours, and then absorbance was measured at 490 nm using a Spectramax Plus384 microplate analyzer.

SKBR3 [2] = test: MTS assay cell viability in SKBR3; type: cell-based; conditions: SKBR3 (trastuzumab-sensitive), 0, 0.1, 0.5, 1, 2, and 5 µM, 72 hours
JIMT-1 [3] = test: Cell morphology by optical microscope in JIMT-1; type: cell-based, human; conditions: 5 µM, 48 hours
Description: as §1

JIMT-1 [4] = test: MTS assay cell viability in JIMT-1; type: cell-based, human; conditions: 72 hours; for inhibition of cell viability: JIMT-1 (trastuzumab-resistant), 0, 0.1, 0.5, 1, 2, and 5 µM; for cell viability: JIMT-1, 0, 1, and 5 µM
Description: as §2, §3, §4, §1

SKBR3 [5] = test: Annexin V/PI staining flow cytometry in SKBR3; type: cell-based; conditions: 5 µM, 48 hours
Description: (§5) Subsequently, after treatment with the compounds of Formulas 1-16 and 1-19 at a concentration of 5 µM for 48 hours in SKBR3 and JIMT-1 cell lines, the degree of apoptosis was measured by flow cytometry through Annexin V/PI staining, and the results are shown in A of FIG. 5. […] After treatment in the same manner as above, expression of apoptosis-related proteins and degradation of tubulin protein were confirmed by western blot, and the results are shown in B of FIG. 5.

phospho-Histone H3 = phospho-Histone H3 immunocytochemistry in JIMT-1; type: cell-based, human; conditions: 5 µM, 24 hours
Description: In addition, after treatment with compounds 1-16 and 1-19 at a concentration of 5 µM for 24 hours in a JIMT-1 cell line, expression of phospho-Histone H3, a marker of mitosis, was confirmed by immunocytochemistry, and the results are shown in B of FIG. 6.

[6] = tested on: colorectal cancer cell line HCT116; test: MTS assay cell viability in HCT116; type: cell-based; conditions: 0, 0.1, 0.5, 1, 5, and 10 µM, 72 hours
tubulin protein [7] = test: Western blot of apoptosis-related proteins and tubulin in JIMT-1; type: cell-based, human; conditions: 5 µM, 48 hours
Description: as §5

[8] = tested on: ovarian cancer cell line SKOV3; test: MTS assay cell viability in SKOV3; type: cell-based; conditions: 0, 0.1, 0.5, 1, 5, and 10 µM, 72 hours
[9] = tested on: prostate cancer cell line Du145; test: MTS assay cell viability in Du145; type: cell-based; conditions: 0, 0.1, 0.5, 1, 5, and 10 µM, 72 hours
JIMT-1 [10] = test: Annexin V/PI staining flow cytometry in JIMT-1; type: cell-based, human; conditions: 5 µM, 48 hours
Description: as §5

JIMT-1 [11] = test: Cell cycle analysis by propidium iodide flow cytometry in JIMT-1; type: cell-based, human; conditions: 5 µM, 48 hours, PI staining
Description: In order to confirm this, the following experiments were performed. After treatment with the compounds of Formulas 1-16 and 1-19 at a concentration of 5 µM for 48 hours in a trastuzumab-resistant HER2-positive breast cancer cell JIMT-1, the cells were stained with propidium iodide (PI), and the cell cycle was analyzed according to DNA content using flow cytometry, and the results are shown in A of FIG. 6.

[12] = tested on: hepatic cancer cell line HepG2; test: MTS assay cell viability in HepG2; type: cell-based; conditions: 0, 0.1, 0.5, 1, 5, and 10 µM, 72 hours
tubulin protein [13] = test: Western blot of apoptosis-related proteins and tubulin in SKBR3; type: cell-based; conditions: 5 µM, 48 hours
Description: as §5

[14] = tested on: HER2, HER family members (HER3 and EGFR), and AKT and MEK; test: Western blot of HER2 signaling proteins in JIMT-1; type: cell-based, human; conditions: 5 µM, 24, 48, and 72 hours
Description: Then, after treatment with the compounds of Formulas 1-16 and 1-19 at a concentration of 5 µM for 24, 48, and 72 hours in a JIMT-1 cell line, protein expression and phosphorylation of HER2, HER family members (HER3 and EGFR), and AKT and MEK of downstream signaling mechanism were confirmed by western blot, and the results are shown in FIG. 7. […] Thereby, it was confirmed that the quinazoline-benzimidazole derivatives of the disclosure have a tyrosine kinase inhibitory effect on HER2 as in the above-described design objective.

[15] = tested on: hematological cancer cell line HL-60; test: MTS assay cell viability in HL-60; type: cell-based; conditions: 0, 0.1, 0.5, 1, 5, and 10 µM, 72 hours
[16] = tested on: lung cancer cell line H1299; test: MTS assay cell viability in H1299; type: cell-based; conditions: 0, 0.1, 0.5, 1, 5, and 10 µM, 72 hours

Question: With O=c1c2cc(-c3ccc4nc(-c5ccc(Cl)cc5)[nH]c4c3)ccc2ncn1CCN1CCCCC1 [Formula 1-15, 6-(2-(4-Chlorophenyl)-1H-benzo[d]imidazol-6-yl)-3-(2-(piperidin-1-yl)ethyl)quinazolin-4(3H)-one] as the compound, how does the “morphological changes of the cells” value (SKBR3 [1]) read?
Answer: Its value is “typical apoptotic morphology”.

Question: And the cell viability (MDA-MB-231)?
Answer: Its cell viability is “excellent activity”.

Question: What about the “inhibition of cell viability” value (SKBR3 [2]) of the same compound?
Answer: The value was “concentration-dependent inhibition of cell viability”.

Question: What about the “morphological changes of the cells” value (JIMT-1 [3]) of the same compound?
Answer: The value was “typical apoptotic morphology”.

Question: What about the “inhibition of cell viability” value (JIMT-1 [4]) of the same compound?
Answer: The value was “concentration-dependent inhibition of cell viability”.

Question: What about the cell viability (JIMT-1 [4]) of the same compound?
Answer: Its cell viability is “excellent activity”.

Question: Which degree of apoptosis (SKBR3 [5]) does the source give for O=c1c2cc(-c3ccc4nc(-c5ccc(F)c(Cl)c5)[nH]c4c3)ccc2ncn1CCN1CCCCC1 [Formula 1-16] here?
Answer: The degree of apoptosis was “effectively induced early and late apoptosis”.

Question: What about the “expression of phospho-Histone H3, a marker of mitosis” value (phospho-Histone H3) of the same compound?
Answer: The value was “increased abnormal expression of a phospho-Histone H3 protein”.

Question: What about the cell viability [6] of the same compound?
Answer: Its cell viability is “effectively inhibited”.

Question: And the “expression of apoptosis-related proteins and degradation of tubulin protein” value (“expression … of tubulin protein” for short) (tubulin protein [7])?
Answer: The value was “apoptosis effect by inhibiting tubulin polymerization”.

Question: What about the “morphological changes of the cells” value (SKBR3 [1]) of the same compound?
Answer: Its value is “typical apoptotic morphology”.

Question: What about the cell viability (MDA-MB-231) of the same compound?
Answer: Its cell viability is “excellent activity”.

Question: What about the cell viability [8] of the same compound?
Answer: The cell viability was “effectively inhibited”.

Question: And the cell viability [9]?
Answer: Its cell viability is “effectively inhibited”.

Question: And the degree of apoptosis (JIMT-1 [10])?
Answer: The degree of apoptosis was “effectively induced early and late apoptosis”.

Question: And the “inhibition of cell viability” value (SKBR3 [2])?
Answer: The value was “concentration-dependent inhibition of cell viability”.

Question: And the “cell cycle according to DNA content” value (JIMT-1 [11])?
Answer: The value was “G2/M phase cell cycle arrest”.

Question: What about the cell viability [12] of the same compound?
Answer: The cell viability was “effectively inhibited”.

Question: What about the “morphological changes of the cells” value (JIMT-1 [3]) of the same compound?
Answer: Its value is “typical apoptotic morphology”.

Question: What about the “inhibition of cell viability” value (JIMT-1 [4]) of the same compound?
Answer: The value was “concentration-dependent inhibition of cell viability”.

Question: And the cell viability (JIMT-1 [4])?
Answer: Its cell viability is “excellent activity”.

Question: What about the “expression … of tubulin protein” value (tubulin protein [13]) of the same compound?
Answer: The value was “apoptosis effect by inhibiting tubulin polymerization”.

Question: And the “activities of HER2, p95HER2, HER3, EGFR, AKT, and MEK” value [14]?
Answer: The value was “effectively inhibited”.

Question: What about the “protein expression and phosphorylation of HER2, HER family members (HER3 and EGFR), and AKT and MEK” value [14] of the same compound?
Answer: The value was “decreased in a time-dependent manner”.

Question: What about the cell viability [15] of the same compound?
Answer: Its cell viability is “effectively inhibited”.

Question: And the cell viability [16]?
Answer: Its cell viability is “effectively inhibited”.

Question: For Cc1ccc(-c2nc3ccc(-c4ccc5ncn(CCN6CCCCC6)c(=O)c5c4)cc3[nH]2)cc1 [Formula 1-19], which degree of apoptosis (SKBR3 [5]) is on record?
Answer: Its degree of apoptosis is “effectively induced early and late apoptosis”.

Question: What about the “expression of phospho-Histone H3, a marker of mitosis” value (phospho-Histone H3) of the same compound?
Answer: Its value is “increased abnormal expression of a phospho-Histone H3 protein”.

Question: And the cell viability [6]?
Answer: Its cell viability is “effectively inhibited”.

Question: And the “expression … of tubulin protein” value (tubulin protein [7])?
Answer: Its value is “apoptosis effect by inhibiting tubulin polymerization”.

Question: What about the “morphological changes of the cells” value (SKBR3 [1]) of the same compound?
Answer: The value was “typical apoptotic morphology”.

Question: And the cell viability (MDA-MB-231)?
Answer: Its cell viability is “excellent activity”.

Question: What about the cell viability [8] of the same compound?
Answer: The cell viability was “effectively inhibited”.

Question: What about the cell viability [9] of the same compound?
Answer: Its cell viability is “effectively inhibited”.

Question: And the degree of apoptosis (JIMT-1 [10])?
Answer: Its degree of apoptosis is “effectively induced early and late apoptosis”.

Question: And the “inhibition of cell viability” value (SKBR3 [2])?
Answer: The value was “concentration-dependent inhibition of cell viability”.

Question: What about the “cell cycle according to DNA content” value (JIMT-1 [11]) of the same compound?
Answer: The value was “G2/M phase cell cycle arrest”.

Question: And the cell viability [12]?
Answer: Its cell viability is “effectively inhibited”.

Question: What about the “morphological changes of the cells” value (JIMT-1 [3]) of the same compound?
Answer: The value was “typical apoptotic morphology”.

Question: And the “inhibition of cell viability” value (JIMT-1 [4])?
Answer: Its value is “concentration-dependent inhibition of cell viability”.

Question: And the cell viability (JIMT-1 [4])?
Answer: The cell viability was “excellent activity”.

Question: What about the “expression … of tubulin protein” value (tubulin protein [13]) of the same compound?
Answer: Its value is “apoptosis effect by inhibiting tubulin polymerization”.

Question: What about the “activities of HER2, p95HER2, HER3, EGFR, AKT, and MEK” value [14] of the same compound?
Answer: Its value is “effectively inhibited”.

Question: And the “protein expression and phosphorylation of HER2, HER family members (HER3 and EGFR), and AKT and MEK” value [14]?
Answer: Its value is “decreased in a time-dependent manner”.

Question: What about the cell viability [15] of the same compound?
Answer: Its cell viability is “effectively inhibited”.

Question: What about the cell viability [16] of the same compound?
Answer: The cell viability was “effectively inhibited”.

Question: Which “morphological changes of the cells” value (SKBR3 [1]) does the source give for O=c1c2cc(-c3ccc4nc(-c5ccc(Cl)cn5)[nH]c4c3)ccc2ncn1CCN1CCCCC1 [Formula 1-22, 6-(2-(5-Chloropyridin-2-yl)-1H-benzo[d]imidazol-6-yl)-3-(2-(piperidin-1-yl)ethyl)quinazolin-4(3H)-one] here?
Answer: Its value is “typical apoptotic morphology”.

Question: What about the cell viability (MDA-MB-231) of the same compound?
Answer: The cell viability was “excellent activity”.

Question: What about the “inhibition of cell viability” value (SKBR3 [2]) of the same compound?
Answer: Its value is “concentration-dependent inhibition of cell viability”.

Question: And the “morphological changes of the cells” value (JIMT-1 [3])?
Answer: Its value is “typical apoptotic morphology”.

Question: And the “inhibition of cell viability” value (JIMT-1 [4])?
Answer: Its value is “concentration-dependent inhibition of cell viability”.

Question: What about the cell viability (JIMT-1 [4]) of the same compound?
Answer: Its cell viability is “excellent activity”.
